The subject of this test is P388 leukemia ip, CD2F1 mice, survival T/C. Description: NCI In Vivo Anticancer Drug Screen. Data for tumor model P388 Leukemia (intraperitoneal) in CD2F1 (CDF1) mice. The following applies: endpoint: median survival time, higher = longer survival. In a few lines:
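Mice carrying the transplanted tumor received test compound or vehicle. Survival was recorded in each group, and the value is the treated-group measurement divided by that of the vehicle-treated control group.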

[1] abbreviates: dose: 50.0 mg/kg/injection, schedule: Q01DX009 (ip), vehicle: Klucel (hydroxypropylcellulose) (HPC).
The mark [2] stands for this setting: dose: 100.0 mg/kg/injection, schedule: Q01DX009 (ip), vehicle: Klucel (hydroxypropylcellulose) (HPC).
Where [3] appears, read: dose: 200.0 mg/kg/injection, schedule: Q01DX009 (ip), vehicle: Klucel (hydroxypropylcellulose) (HPC).
The mark [4] stands for this setting: dose: 50.0 mg/kg/injection, schedule: Q01DX009 (ip), vehicle: saline with Tween-80.
[5] abbreviates: dose: 100.0 mg/kg/injection, schedule: Q01DX009 (ip), vehicle: saline with Tween-80.
Setting [6] is: dose: 200.0 mg/kg/injection, schedule: Q01DX009 (ip), vehicle: saline with Tween-80.
Where [7] appears, read: dose: 400.0 mg/kg/injection, schedule: Q01DX009 (ip), vehicle: saline with Tween-80.
The mark [8] stands for this setting: dose: 100.0 mg/kg/injection, schedule: Q04DX002 (ip), vehicle: saline with Tween-80.
Setting [9] is: dose: 200.0 mg/kg/injection, schedule: Q04DX002 (ip), vehicle: saline with Tween-80.
Setting [10] is: dose: 400.0 mg/kg/injection, schedule: Q04DX002 (ip), vehicle: saline with Tween-80.
The mark [11] stands for this setting: dose: 100.0 mg/kg/injection, schedule: Q04DX003 (ip), vehicle: saline.
Where [12] appears, read: dose: 200.0 mg/kg/injection, schedule: Q04DX003 (ip), vehicle: saline.
The mark [13] stands for this setting: dose: 400.0 mg/kg/injection, schedule: Q04DX003 (ip), vehicle: saline.
The mark [14] stands for this setting: dose: 60.0 mg/kg/injection, schedule: Q01DX005 (ip), vehicle: saline with Tween-80.
Where [15] appears, read: dose: 120.0 mg/kg/injection, schedule: Q01DX005 (ip), vehicle: saline with Tween-80.
The mark [16] stands for this setting: dose: 240.0 mg/kg/injection, schedule: Q01DX005 (ip), vehicle: saline with Tween-80.

T/C data for 30 molecules are collected here from PubChem BioAssay AID330 (DTP/NCI, 2004).

Values joined by “and” are separate entries in the source; they are usually repeats but may differ in a detail not shown here. Equal entries are not always repeated. Inconclusive results and toxic doses are left out.

Turning to `CCOc1c(N=Nc2ccccc2C)c(C)nn1C(=S)SC`, the T/C runs as follows: (dose: 60.0 mg/kg/injection, schedule: Q01DX005 (ip), vehicle: Klucel + Tween-80) 95 % of control; (dose: 120.0 mg/kg/injection, schedule: Q01DX005 (ip), vehicle: Klucel + Tween-80) 92 % of control.
For `CC1C(c2ccccc2)OCCN1C(=S)NC(=O)c1ccccc1` (centres undefined), the T/C (dose: 25.0 mg/kg/injection, schedule: Q01DX009 (ip), vehicle: Klucel (hydroxypropylcellulose) (HPC)) was 102 % of control; the T/C under setting [1] was 101 % of control; the T/C under setting [2] was 100 % of control; the T/C under setting [3] is 111 % of control.
Turning to `CC1CCCC(C)N1NC1=NCCO1` (centres undefined), the T/C is 104 % of control (dose: 25.0 mg/kg/injection, schedule: Q04DX003 (ip), vehicle: saline with Tween-80) and 95 % of control (dose: 50.0 mg/kg/injection, schedule: Q04DX003 (ip), vehicle: saline with Tween-80).
`N/C(CCSc1ccccc1N=Cc1ccccc1O)=N/O`: the T/C is, setting by setting: (dose: 12.5 mg/kg/injection, schedule: Q01DX009 (ip), vehicle: olive oil, sesame oil, peanut oil) 102 % of control; (dose: 25.0 mg/kg/injection, schedule: Q01DX009 (ip), vehicle: olive oil, sesame oil, peanut oil) 104 % of control; (dose: 50.0 mg/kg/injection, schedule: Q01DX009 (ip), vehicle: olive oil, sesame oil, peanut oil) 104 % of control.
For the molecule `O=C1c2cccc3c([N+](=O)[O-])ccc(c23)C(=O)N1CCCN1CCOCC1`, the T/C was 114 % of control (dose: 50.0 mg/kg/injection, schedule: Q01DX005 (ip), vehicle: saline with Tween-80) and 116 % of control (dose: 100.0 mg/kg/injection, schedule: Q01DX005 (ip), vehicle: saline with Tween-80).
With `COc1cc(OC)cc(-c2n[se]c(-c3cc(OC)cc(OC)c3)n2)c1`, the T/C was 87 % of control (dose: 1.56 mg/kg/injection, schedule: Q01DX009 (ip), vehicle: saline with Tween-80) and 89 % of control under setting [4].
As to `CC1C=CC(C)c2c(-c3ccccc3)oc(-c3ccccc3)c21` (centres undefined), the T/C under setting [5] is 95 % of control, the T/C under setting [6] was 104 % of control and the T/C under setting [7] is 108 % of control.
As to `O=C(Nc1ccc(S(=O)(=O)c2ccc(NC(=O)c3ccco3)cc2)cc1)c1ccco1`, the T/C was 105 % of control under setting [4], 98 % of control under setting [5] and 95 % of control under setting [6].
As to `CN(C(=O)NCCCl)C1=NC(O)(c2ccccc2)C(c2ccccc2)=N1` (centres undefined), the T/C under setting [8] was 106 % of control, the T/C under setting [9] is 113 % of control and the T/C under setting [10] was 112 % of control.
For the molecule `CC1(C)CCC(C2=CC(=O)c3c(O)ccc(O)c3C2=O)O1` (centres undefined), the T/C (dose: 3.12 mg/kg/injection, schedule: Q01DX005 (ip), vehicle: saline with Tween-80) was 103 % of control; the T/C (dose: 6.25 mg/kg/injection, schedule: Q01DX005 (ip), vehicle: saline with Tween-80) is 108 % of control; the T/C (dose: 12.5 mg/kg/injection, schedule: Q01DX005 (ip), vehicle: saline with Tween-80) was 99 % of control.
With `Cn1c(=O)[nH]c(=O)c2nc(-c3ccc(Cl)c(Cl)c3)cnc21`, the T/C is 104 % of control under setting [4], 101 % of control under setting [5] and 99 % of control under setting [6].
Regarding `CC1(C)CC(NC(=O)c2cc([N+](=O)[O-])c(S(=O)(=O)O)c([N+](=O)[O-])c2)CC(C)(C)N1O`, the T/C reads like this: under setting [8], 110 % of control; under setting [9], 100 % of control; under setting [10], 107 % of control.
As to `Cc1ccc(S(=O)(=O)CC2(Br)Cc3ccccc3C2=O)cc1` (centres undefined), the T/C reads like this: under setting [11], 103 % of control; under setting [12], 100 % of control; under setting [13], 100 % of control.
With `O=C(NNC(=S)Nc1ccccc1)c1ccncc1`, the T/C under setting [4] is 107 % of control, the T/C under setting [5] is 107 % of control and the T/C under setting [6] was 107 % of control.
In the case of `CC(C)N(C)N=Nc1ccc(C(N)=O)cc1`, the T/C runs as follows: under setting [1], 114 % of control and 120 % of control; under setting [2], 113 % of control.
As to `COc1ccc2c(c1)C(=O)C[C@@H]1[C@](C)(C#N)CCC[C@]21C`, the T/C under setting [14] is 100 % of control, the T/C under setting [15] was 94 % of control and the T/C under setting [16] was 94 % of control.
As to `COC(=O)CCCCCCCCCCCCC1C=CCC1` (centres undefined), the T/C reads like this: (dose: 100.0 mg/kg/injection, schedule: Q01DX001 (ip), vehicle: saline) 100 % of control; (dose: 200.0 mg/kg/injection, schedule: Q01DX001 (ip), vehicle: saline) 104 % of control; (dose: 400.0 mg/kg/injection, schedule: Q01DX001 (ip), vehicle: saline) 104 % of control.
Regarding `NCC(N)Cn1ccnc1` (centres undefined), the T/C runs as follows: (dose: 50.0 mg/kg/injection, schedule: Q04DX003 (ip), vehicle: saline) 93 % of control; under setting [11], 94 % of control; under setting [12], 95 % of control.
For the molecule `CN1Cc2c(N)cccc2C(c2ccccc2)C1` (centres undefined), the T/C by setting is: under setting [1], 96 % of control; under setting [2], 105 % of control.
For the molecule `CC(C)N1C(C)(C)C1(C)C#N` (centres undefined), the T/C was 100 % of control (dose: 60.0 mg/kg/injection, schedule: Q01DX005 (ip), vehicle: saline) and 104 % of control (dose: 120.0 mg/kg/injection, schedule: Q01DX005 (ip), vehicle: saline).
Turning to `CN(NC(=O)CC(=O)NN(C)C(=S)c1ccccc1)C(=S)c1ccccc1`, the T/C is 97 % of control (dose: 12.5 mg/kg/injection, schedule: Q01DX009 (ip), vehicle: gum acacia); 115 % of control (dose: 25.0 mg/kg/injection, schedule: Q01DX009 (ip), vehicle: gum acacia); 104 % of control (dose: 50.0 mg/kg/injection, schedule: Q01DX009 (ip), vehicle: gum acacia).
For `CCN(CC)CC(O)c1c(-c2ccccc2)c(-c2ccccc2)c2n1CCC2` (centres undefined), the T/C under setting [1] was 103 % of control, the T/C under setting [2] was 106 % of control and the T/C under setting [3] is 109 % of control.
For the molecule `C[CH2][Sn]([CH2]C)([O]C(=O)c1ccc2c(c1)OC(C)(C)O2)[O]C(=O)c1ccc2c(c1)OC(C)(C)O2`, the T/C (dose: 6.25 mg/kg/injection, schedule: Q01DX005 (ip), vehicle: Klucel (hydroxypropylcellulose) (HPC)) was 117 % of control; the T/C (dose: 12.5 mg/kg/injection, schedule: Q01DX005 (ip), vehicle: Klucel (hydroxypropylcellulose) (HPC)) was 116 % of control; the T/C (dose: 25.0 mg/kg/injection, schedule: Q01DX005 (ip), vehicle: Klucel (hydroxypropylcellulose) (HPC)) is 120 % of control; the T/C (dose: 50.0 mg/kg/injection, schedule: Q01DX005 (ip), vehicle: Klucel (hydroxypropylcellulose) (HPC)) was 124 % of control.
Consider `O=C(Nc1cccc(Br)c1)Oc1cccc2cccnc12`, for which the T/C reads like this: under setting [14], 105 % of control; under setting [15], 94 % of control; under setting [16], 90 % of control.
As to `CCOC(=O)c1c(C)c(C(=O)OCC)n(C)c1C=O`, the T/C under setting [5] was 97 % of control, the T/C under setting [6] was 97 % of control and the T/C under setting [7] is 96 % of control.
Consider `Cc1ccc2c(c1)C(=O)C(CN1CCN(C)CC1)CO2` (centres undefined), for which the T/C is, setting by setting: (dose: 50.0 mg/kg/injection, schedule: Q01DX009 (ip), vehicle: saline) 106 % of control; (dose: 100.0 mg/kg/injection, schedule: Q01DX009 (ip), vehicle: saline) 109 % of control; (dose: 200.0 mg/kg/injection, schedule: Q01DX009 (ip), vehicle: saline) 99 % of control.
Take `O=C1CCCN1`: the T/C is, setting by setting: under setting [11], 100 % of control; under setting [12], 100 % of control; under setting [13], 109 % of control.
Take `O=c1c(Br)cc(CN2CCOCC2)cc(CN2CCOCC2)c1O`: the T/C is, setting by setting: under setting [4], 112 % of control; under setting [5], 116 % of control.
As for `CCOC(=O)CC(C)=NCCN=C(C)CC(=O)OCC`, the T/C under setting [4] is 104 % of control, the T/C under setting [5] was 106 % of control and the T/C under setting [6] is 111 % of control.
For `COC(=O)CS(=O)(=O)CC(=O)OC`, the T/C runs as follows: under setting [1], 100 % of control; under setting [2], 106 % of control; under setting [3], 101 % of control.
